Reference: paper doi:10.1101/2025.09.05.674519v1 (biorxiv, 2025)
Structures can show the parent of a compound that is named as a salt.

Tests used:
[1] = biological target: T1, ULK2 (recombinant human ULK2 protein 1-478, ADP-Glo) (Homo sapiens, UniProt Q8IYT8); assay: biochemical
T1 sequence (Q8IYT8 1-478): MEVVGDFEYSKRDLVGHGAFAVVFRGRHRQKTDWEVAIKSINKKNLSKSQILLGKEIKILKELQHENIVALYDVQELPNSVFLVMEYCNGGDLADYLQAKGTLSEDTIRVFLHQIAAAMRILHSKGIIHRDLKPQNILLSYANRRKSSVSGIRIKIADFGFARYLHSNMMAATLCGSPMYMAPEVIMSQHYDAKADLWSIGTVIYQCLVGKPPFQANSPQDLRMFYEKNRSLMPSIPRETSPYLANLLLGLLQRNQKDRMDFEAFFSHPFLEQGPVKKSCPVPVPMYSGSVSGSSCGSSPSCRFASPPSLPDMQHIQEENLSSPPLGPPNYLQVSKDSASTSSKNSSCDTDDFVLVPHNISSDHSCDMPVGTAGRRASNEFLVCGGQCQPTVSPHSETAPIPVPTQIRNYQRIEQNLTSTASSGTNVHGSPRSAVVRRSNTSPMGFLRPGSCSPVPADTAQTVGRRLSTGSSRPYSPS

NanoLuc-ULK2 (NanoBRET) [2] = biological target: T2, NanoLuc-ULK2 (NanoBRET) (Homo sapiens, UniProt Q8IYT8); assay: cell-based; design: species or system HEK293T
T2 sequence (Q8IYT8 1-1036): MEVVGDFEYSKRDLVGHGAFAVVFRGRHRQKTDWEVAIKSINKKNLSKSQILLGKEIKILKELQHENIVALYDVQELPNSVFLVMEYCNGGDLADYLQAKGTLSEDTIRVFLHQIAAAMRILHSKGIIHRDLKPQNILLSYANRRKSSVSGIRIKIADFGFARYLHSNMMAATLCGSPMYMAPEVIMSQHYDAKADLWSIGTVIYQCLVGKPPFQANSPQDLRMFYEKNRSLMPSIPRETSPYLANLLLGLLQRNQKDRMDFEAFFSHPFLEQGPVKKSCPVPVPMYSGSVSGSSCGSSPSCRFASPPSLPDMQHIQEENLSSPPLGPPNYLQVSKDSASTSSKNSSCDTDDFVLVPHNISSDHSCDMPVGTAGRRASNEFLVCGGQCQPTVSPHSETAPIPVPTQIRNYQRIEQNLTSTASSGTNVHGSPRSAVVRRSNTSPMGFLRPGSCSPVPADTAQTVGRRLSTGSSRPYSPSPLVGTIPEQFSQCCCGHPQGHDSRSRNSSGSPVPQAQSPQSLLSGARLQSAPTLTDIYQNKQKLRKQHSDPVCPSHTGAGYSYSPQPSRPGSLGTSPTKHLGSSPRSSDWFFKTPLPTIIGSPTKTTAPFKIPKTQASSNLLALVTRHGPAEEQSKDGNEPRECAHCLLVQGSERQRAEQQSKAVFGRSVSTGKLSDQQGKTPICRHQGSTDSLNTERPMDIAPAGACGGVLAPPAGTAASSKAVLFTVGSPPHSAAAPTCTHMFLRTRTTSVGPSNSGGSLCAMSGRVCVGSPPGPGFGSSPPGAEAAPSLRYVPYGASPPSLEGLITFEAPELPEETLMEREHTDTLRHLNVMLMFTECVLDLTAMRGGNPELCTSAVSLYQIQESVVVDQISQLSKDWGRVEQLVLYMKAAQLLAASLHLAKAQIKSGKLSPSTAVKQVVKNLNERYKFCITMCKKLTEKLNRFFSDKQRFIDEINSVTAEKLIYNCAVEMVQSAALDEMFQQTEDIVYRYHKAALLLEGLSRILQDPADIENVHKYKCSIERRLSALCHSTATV

[3] = biological target: T3, ULK2 kinase domain (1-276) (Homo sapiens, UniProt Q8IYT8); assay: biochemical; details: read-out: ULK2 PTS (ºC)
T3 sequence (Q8IYT8 1-276): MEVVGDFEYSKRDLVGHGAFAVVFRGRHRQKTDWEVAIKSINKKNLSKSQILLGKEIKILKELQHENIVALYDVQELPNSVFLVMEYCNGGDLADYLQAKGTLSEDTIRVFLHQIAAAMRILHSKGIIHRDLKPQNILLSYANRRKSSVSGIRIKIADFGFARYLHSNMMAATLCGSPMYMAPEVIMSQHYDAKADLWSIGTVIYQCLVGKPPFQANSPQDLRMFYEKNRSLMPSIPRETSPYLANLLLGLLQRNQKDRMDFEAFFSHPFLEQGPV

[4] = biological target: T4, ULK1 (recombinant human ULK1 protein 1-649, ADP-Glo) (Homo sapiens, UniProt O75385); assay: ADP-Glo kinase assay; format: biochemical
T4 sequence (O75385 1-649): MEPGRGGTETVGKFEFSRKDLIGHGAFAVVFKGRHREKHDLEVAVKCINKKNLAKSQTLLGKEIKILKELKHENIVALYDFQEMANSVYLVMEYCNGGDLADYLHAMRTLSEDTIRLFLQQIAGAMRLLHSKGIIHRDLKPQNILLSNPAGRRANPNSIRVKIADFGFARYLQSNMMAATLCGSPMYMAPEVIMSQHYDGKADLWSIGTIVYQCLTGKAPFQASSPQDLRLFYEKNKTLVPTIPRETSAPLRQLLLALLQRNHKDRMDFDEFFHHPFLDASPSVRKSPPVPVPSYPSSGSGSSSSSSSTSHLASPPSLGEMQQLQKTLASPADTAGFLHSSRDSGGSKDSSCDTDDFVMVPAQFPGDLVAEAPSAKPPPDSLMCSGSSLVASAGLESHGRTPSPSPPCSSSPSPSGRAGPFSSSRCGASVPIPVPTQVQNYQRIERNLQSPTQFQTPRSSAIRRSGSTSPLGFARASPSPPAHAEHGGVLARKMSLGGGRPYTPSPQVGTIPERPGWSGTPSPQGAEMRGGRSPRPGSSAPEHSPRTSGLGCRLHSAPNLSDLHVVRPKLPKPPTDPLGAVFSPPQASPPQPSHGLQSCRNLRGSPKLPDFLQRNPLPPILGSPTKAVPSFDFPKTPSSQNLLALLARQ

NanoLuc-ULK1 (NanoBRET) = biological target: T5, NanoLuc-ULK1 (NanoBRET) (Homo sapiens, UniProt O75385); assay: NanoBRET tracer displacement in live HEK293T cells; format: cell-based
T5 sequence (O75385 1-1050): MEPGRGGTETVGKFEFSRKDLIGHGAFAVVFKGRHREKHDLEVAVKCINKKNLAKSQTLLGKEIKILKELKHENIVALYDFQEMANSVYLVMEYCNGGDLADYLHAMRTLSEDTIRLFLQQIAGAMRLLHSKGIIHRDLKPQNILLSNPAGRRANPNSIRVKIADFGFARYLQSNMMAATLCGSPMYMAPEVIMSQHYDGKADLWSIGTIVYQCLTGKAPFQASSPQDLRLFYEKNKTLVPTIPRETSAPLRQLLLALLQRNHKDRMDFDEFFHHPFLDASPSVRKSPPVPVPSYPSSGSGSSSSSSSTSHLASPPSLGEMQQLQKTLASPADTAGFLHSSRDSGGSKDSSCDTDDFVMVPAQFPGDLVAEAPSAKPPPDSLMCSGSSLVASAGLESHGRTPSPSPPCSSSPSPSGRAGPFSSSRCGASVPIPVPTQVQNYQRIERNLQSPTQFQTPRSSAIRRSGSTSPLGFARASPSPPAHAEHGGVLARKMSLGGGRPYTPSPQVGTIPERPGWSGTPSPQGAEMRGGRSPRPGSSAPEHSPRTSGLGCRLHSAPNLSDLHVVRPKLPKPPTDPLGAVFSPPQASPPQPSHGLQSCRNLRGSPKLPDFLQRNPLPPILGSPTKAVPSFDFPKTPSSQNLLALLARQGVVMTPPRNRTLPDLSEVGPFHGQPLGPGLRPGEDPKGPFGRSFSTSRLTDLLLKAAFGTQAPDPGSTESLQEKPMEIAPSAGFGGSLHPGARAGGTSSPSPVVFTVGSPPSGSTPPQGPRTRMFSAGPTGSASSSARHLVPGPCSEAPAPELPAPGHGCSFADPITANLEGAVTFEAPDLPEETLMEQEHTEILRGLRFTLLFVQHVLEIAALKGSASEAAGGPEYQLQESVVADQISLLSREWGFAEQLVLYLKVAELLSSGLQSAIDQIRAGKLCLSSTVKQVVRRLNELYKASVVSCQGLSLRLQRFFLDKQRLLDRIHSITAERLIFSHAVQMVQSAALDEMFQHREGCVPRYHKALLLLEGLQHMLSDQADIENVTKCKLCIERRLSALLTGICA

[5] = biological target: T1, ULK2 (recombinant human ULK2 protein 1-478, ADP-Glo); assay: ADP-Glo kinase assay; format: biochemical
NanoLuc-ULK2 (NanoBRET) [6] = biological target: T2, NanoLuc-ULK2 (NanoBRET); assay: NanoBRET tracer displacement in live HEK293T cells; format: cell-based

Row | Compound | IC50 [1] | IC50 (NanoLuc-ULK2 (NanoBRET) [2]) | ΔTm at 10 µM [3] | IC50 [4] | IC50 (NanoLuc-ULK1 (NanoBRET)) | IC50 [5] | IC50 (NanoLuc-ULK2 (NanoBRET) [6])
1 | O=C1CCc2cc(Nc3ncc(Br)c(NC4CC4)n3)ccc2N1 [compound 7, 6-((5-Bromo-4-(cyclopropylamine)pyrimidin-2-yl)amino)-3,4-dihydroquinolin-2(1H)-one] | 896 ± 92 nM | 1580 ± 325 nM | 2 ± 0.8 °C | – | – | – | –
2 | O=C1Cc2cc(Nc3ncc(C(F)(F)F)c(NC4CC4)n3)ccc2N1 [compound 3, 5-((4-(Cyclopropylamine)-5-(trifluoromethyl)pyrimidin-2-yl)amino)indolin-2-one] | 704 ± 63 nM | 1100 ± 454 nM | 3 ± 1.3 °C | – | – | – | –
3 | COc1cc(Nc2ncc(Br)c(NC3CC3)n2)cc(OC)c1OC [compound 6, 5-Bromo-N4-cyclopropyl-N2-(3,4,5-trimethoxyphenyl)pyrimidine-2,4-diamine] | 217 ± 108 nM | 1470 ± 261 nM | 7 ± 0.7 °C | – | – | – | –
4 | O=C1CCc2cc(Nc3nccc(NC4CC4)n3)ccc2N1 [compound 8, 8] | – | – | – | 2330 ± 667 nM | > 10000 nM | – | –
5 | COc1cc(Nc2ncc(C(F)(F)F)c(NC3CC3)n2)cc(OC)c1OC [compound 1] | – | – | – | – | – | 64 ± 22 nM | 172 ± 33 nM
6 | O=C1CCc2cc(Nc3ncc(C(F)(F)F)c(NC4CC4)n3)ccc2N1 [compound 2, 6-((4-(Cyclopropylamine)-5-(trifluoromethyl)pyrimidine-2-yl)amino)-3,4-dihydroquinoline-2(1H)-one] | – | – | – | – | – | 118 ± 34 nM | 174 nM

Now from value to compound:

Row | IC50 [1] | IC50 (NanoLuc-ULK2 (NanoBRET) [2]) | ΔTm at 10 µM [3] | IC50 [4] | IC50 (NanoLuc-ULK1 (NanoBRET)) | IC50 [5] | IC50 (NanoLuc-ULK2 (NanoBRET) [6]) | Compound
7 | 980 ± 62 nM | 875 ± 131 nM | 8 ± 0.1 °C | – | – | – | – | O=C1CCc2cc(Nc3ncc(C(F)(F)F)c(NCCO)n3)ccc2N1 [compound 15, 6-((4-((2-Hydroxyethyl)amino)-5-(trifluoromethyl)pyrimidin-2-yl)amino)-3,4-dihydroquinolin-2(1H)-one]
8 | 480 ± 65 nM | 77 ± 13 nM | 7.5 °C | – | – | – | – | NCCCNc1nc(Nc2ccc3c(c2)CCC(=O)N3)ncc1C(F)(F)F [compound 19, 6-((4-((3-Aminopropyl)amino)-5-(trifluoromethyl)pyrimidin-2-yl)amino)-3,4 dihydroquinolin-2(1H)-one·HCl]
9 | – | – | – | 25 ± 6 nM | > 10000 nM | – | – | O=C1CCc2cc(Nc3ncc(C(F)(F)F)c(NC4CCCC4)n3)ccc2N1 [compound 12, 6-((4-(Cyclopentylamine)-5-(trifluoromethyl)pyrimidin-2-yl)amino)-3,4-dihydroquinolin-2(1H)-one]
10 | – | – | 8 ± 0.6 °C | – | – | 50 ± 12 nM | 44 ± 10 nM | O=C1CCc2cc(Nc3ncc(C(F)(F)F)c(NCCCNC(=O)C4CC4)n3)ccc2N1 [compound 21, N-(3-((2-((2-Oxo-1,2,3,4-tetrahydroquinolin-6-yl)amino)-5-(trifluoromethyl)pyrimidin-4-yl)amino)propyl)cyclopropanecarboxamide]
11 | 464 ± 90 nM | 1820 ± 599 nM | 4 ± 0.1 °C | – | – | – | – | O=C1CCc2cc(Nc3ncc(C(F)(F)F)c(NCC(F)(F)F)n3)ccc2N1 [compound 14, 6-((4-((2,2,2-Trifluoroethyl)amino)-5-(trifluoromethyl)pyrimidin-2-yl)amino)-3,4 dihydroquinolin-2(1H)-one]
